Data set [1] addresses T1, ABL1(T315I)-phosphorylated (Homo sapiens, UniProt P00519, T315I).
T1 construct: purchased Eurofins DiscoverX
Description: KINOMEScan. Format: binding. The settings on record: read-out: Percent Control.
Description: (§3) Percent control was mapped onto the kinome tree using TREEspot.

Data set [2] concerns the target T2, ZAK (Homo sapiens, UniProt Q9NYL2).
T2 construct: purchased Eurofins DiscoverX (KINOMEScan service)
The experiment in a line: KINOMEScan. Format: binding. The settings on record: read-out: Percent Control.

The target in data set [3] is T3, BRAF(V600E) (Homo sapiens, UniProt P15056, V600E).
T3 construct: purchased Eurofins DiscoverX (KINOMEscan)
The experiment in a line: KINOMEScan. Format: binding. The settings on record: read-out: Percent Control.
Description: as §3

Data set [4] deals with A431 cell line (overexpressed EGFRwt). Description: CellTiter-Glo cell viability assay. Type of data set: cell-based, human. The settings on record: Homo sapiens, A-431; 72 h, unadjusted for FBS. The protocol: (§1) The A431, HCC827, SK-BR-3, ZR-75–30, AU565, and Caco-2 cell lines were obtained from ATCC. The NCI-H1975 cell line was obtained from SIBS. The NCI-H3255 cell line was obtained from CoBioer. Engineered Ba/F3 cell lines were obtained from Crown Bioscience. MCKII-MDR1 cells were obtained from The Netherlands Cancer Institute. HEK293 cells were obtained from Invitrogen. A431 cells were cultured in DMEM (Life Technologies) with 10% FBS. HCC827, NCI-H1975, and AU565 cells were cultured in RPMI1640 (Invitrogen) with 10% FBS. NCI-H3255 cells were cultured in BEGM (Lonza) with 10% FBS. Ba/F3 EGFR-del E746_A750/C797S and Ba/F3 EGFR-L858R/C797S cells were cultured in RPMI (Invitrogen) with 10% FBS. SK-BR-3 cells were cultured in McCoy’s 5a (Invitrogen) with 10% FBS. ZR-75-30 cells were cultured in RPMI1640 (Invitrogen) with 20% FBS. Caco-2 and MCKII-MDR1 culture information is given in the Permeability Studies section. HEK293 cells were cultured in DMEM (Gibco) with 10% FBS, 0.1 mM NEAA, 25 mM HEPES, 100 U/mL penicillin-streptomycin, μg/mL blasticidin, and 400 μg/mL Geneticin. All cells were cultured in a humidified incubator with 5% CO2 at 37 °C.
(§2) Viability assays using A431, HCC827, NCI-H1975, NCI-H3255, Ba/F3 EGFR-del E746_A750/C797S, Ba/F3 EGFR-L858R/C797S, AU565, SK-BR-3, and ZR-75-30 cells were performed at Crown BioScience. Cells were plated into 96-well plates at 1500–7000 cells per well and dosed in triplicate (n = 3) in a nine-point, 4-fold dilution series with compounds (0.15 nM to 10 μM) in DMSO and incubated for 72 h. After 72 h, cell viability was assayed by CellTiter-Glo Luminescent Viability Assay (Promega). Dose–response curves were generated and used to calculate the IC50 values which were calculated on GraphPad Prism from the nonlinear regression equation fitted with a sigmoidal dose response and are presented as mean ± SEM.

In data set [5] the test system is AU565 (HER2-positive breast cancer). Description: CellTiter-Glo cell viability assay. The conditions noted are these: Homo sapiens, AU565; 72 h, unadjusted for FBS. Format: cell-based, human. The protocol: as §1, §2
For data set [6], the system named is NCI-H1975 (EGFR mutation = L858R/T790M). Description: CellTiter-Glo cell viability assay. The conditions noted are these: Homo sapiens, NCI-H1975; 72 h, unadjusted for FBS. Format: cell-based, human. The protocol:
as §1, §2

Data set [7] relates to ZR-75-30 (HER2-positive breast cancer). The experiment in a line: CellTiter-Glo cell viability assay. Format: cell-based, human. The settings on record: Homo sapiens, ZR-75-30; 72 h, unadjusted for FBS. The protocol: as §1, §2
(In ATP-based viability assays light output follows the ATP content of the culture.)

Data set [8] deals with SK-BR-3 (HER2-positive breast cancer). Description: CellTiter-Glo cell viability assay. Format: cell-based, human. The conditions noted are these: Homo sapiens, SK-BR-3; 72 h, unadjusted for FBS. The protocol:
as §1, §2

The target in data set [9] is CYP2D6 (Homo sapiens, UniProt P10635). Description: CYP450 inhibition in human liver microsomes. Format: in vitro ADME. Set-up: tissue BD Gentest 452117; host or cells: pooled human liver microsomes, mixed gender. On the technique in general: Liver microsomes are a subcellular fraction often used to study metabolism.
Description: The activities tested were CYP1A2-mediated phenacetin O-demethylation, CYP2C19-mediated (S)-mephenyotin 4′-hydroxylation, CYP2C9-mediated diclofenac 4′-hydroxylation, CYP2D6-mediated dextromethorphan O-demethylation, and CYP3A4-mediated midazolam 1′-hydroxylation. […] The reactions were initiated by adding NADPH (1 mM final concentration) after a 5 min preincubation, and the assay was run in duplicate (n = 2). Samples were analyzed by ultra-performance liquid chromatography tandem mass spectrometry (UPLC-MS/MS).
Data set [10] addresses T4, BIKE (Homo sapiens, UniProt Q9NSY1).
T4 construct: purchased Eurofins DiscoverX (KINOMEscan)
The experiment in a line: KINOMEScan. Format: binding. The settings on record: read-out: Percent Control.
Description: as §3

Data set [11] deals with T5, AMPK-alpha1 (Homo sapiens, UniProt Q13131).
T5 construct: purchased Eurofins DiscoverX (KINOMEscan)
Description: KINOMEScan. Type of data set: binding. The conditions noted are these: AMPK-alpha1, 1 µM; read-out: Percent Control.
Description: as §3

Data set [12] has as its target T6, ABL1(Q252H)-nonphosphorylated (Homo sapiens, UniProt P00519, Q252H).
T6 construct: purchased Eurofins DiscoverX
Description: KINOMEScan. Type of data set: binding. The settings on record: read-out: Percent Control.
Description: as §3

The target of data set [13] is T7, DRAK1 (Homo sapiens, UniProt Q9UEE5).
T7 construct: purchased Eurofins DiscoverX (contract assay)
T7 sequence (Q9UEE5 1-414): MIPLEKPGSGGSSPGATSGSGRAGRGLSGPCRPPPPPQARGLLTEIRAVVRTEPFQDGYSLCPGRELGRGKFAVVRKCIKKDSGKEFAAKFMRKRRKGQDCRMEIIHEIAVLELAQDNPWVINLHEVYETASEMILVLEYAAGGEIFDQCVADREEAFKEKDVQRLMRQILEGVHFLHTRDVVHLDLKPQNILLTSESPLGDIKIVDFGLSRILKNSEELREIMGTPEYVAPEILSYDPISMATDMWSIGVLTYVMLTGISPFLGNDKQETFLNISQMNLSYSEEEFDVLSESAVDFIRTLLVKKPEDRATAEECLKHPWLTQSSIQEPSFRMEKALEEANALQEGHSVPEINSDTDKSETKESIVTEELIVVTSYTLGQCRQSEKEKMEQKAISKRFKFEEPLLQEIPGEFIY
The experiment in a line: KINOMEScan. Type of data set: binding. The settings on record: DRAK1, 1 μM; read-out: Percent Control.
Description: as §3

Data set [14] concerns the target T8, ACVR2A (Homo sapiens, UniProt P27037).
T8 construct: purchased Eurofins DiscoverX (KINOMEscan)
Description: KINOMEScan. Type of data set: binding. The conditions noted are these: read-out: Percent Control.
Description: as §3

Data set [15] concerns the target T9, AURKA (Homo sapiens, UniProt O14965).
T9 construct: purchased Eurofins DiscoverX (KINOMEscan)
Description: KINOMEScan. Type of data set: binding. The settings on record: read-out: Percent Control.

Several values for one entry are separate records, joined by “and”; a condition that tells them apart may be missing. Equal values may be shown once.

Our source for the remaining binding and IC50 values is PMC10683025, “Discovery of a Hydroxylamine-Based Brain-Penetrant EGFR Inhibitor for Metastatic Non-Small-Cell Lung Cancer” (Journal of Medicinal Chemistry, 2023).

Chain of CYP2D6 (P10635 whole entry): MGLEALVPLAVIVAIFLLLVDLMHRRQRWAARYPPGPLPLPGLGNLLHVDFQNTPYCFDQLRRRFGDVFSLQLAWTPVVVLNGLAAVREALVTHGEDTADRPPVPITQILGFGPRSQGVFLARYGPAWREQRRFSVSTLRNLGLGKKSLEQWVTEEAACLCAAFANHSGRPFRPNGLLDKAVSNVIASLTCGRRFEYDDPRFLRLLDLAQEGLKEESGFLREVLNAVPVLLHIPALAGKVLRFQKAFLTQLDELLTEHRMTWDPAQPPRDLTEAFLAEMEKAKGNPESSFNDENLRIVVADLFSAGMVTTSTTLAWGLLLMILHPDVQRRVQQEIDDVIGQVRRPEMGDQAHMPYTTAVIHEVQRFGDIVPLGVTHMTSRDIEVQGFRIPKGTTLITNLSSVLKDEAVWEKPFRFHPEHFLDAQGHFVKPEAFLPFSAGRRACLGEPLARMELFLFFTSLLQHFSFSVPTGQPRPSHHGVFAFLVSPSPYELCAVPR
T2 sequence (Q9NYL2 whole entry): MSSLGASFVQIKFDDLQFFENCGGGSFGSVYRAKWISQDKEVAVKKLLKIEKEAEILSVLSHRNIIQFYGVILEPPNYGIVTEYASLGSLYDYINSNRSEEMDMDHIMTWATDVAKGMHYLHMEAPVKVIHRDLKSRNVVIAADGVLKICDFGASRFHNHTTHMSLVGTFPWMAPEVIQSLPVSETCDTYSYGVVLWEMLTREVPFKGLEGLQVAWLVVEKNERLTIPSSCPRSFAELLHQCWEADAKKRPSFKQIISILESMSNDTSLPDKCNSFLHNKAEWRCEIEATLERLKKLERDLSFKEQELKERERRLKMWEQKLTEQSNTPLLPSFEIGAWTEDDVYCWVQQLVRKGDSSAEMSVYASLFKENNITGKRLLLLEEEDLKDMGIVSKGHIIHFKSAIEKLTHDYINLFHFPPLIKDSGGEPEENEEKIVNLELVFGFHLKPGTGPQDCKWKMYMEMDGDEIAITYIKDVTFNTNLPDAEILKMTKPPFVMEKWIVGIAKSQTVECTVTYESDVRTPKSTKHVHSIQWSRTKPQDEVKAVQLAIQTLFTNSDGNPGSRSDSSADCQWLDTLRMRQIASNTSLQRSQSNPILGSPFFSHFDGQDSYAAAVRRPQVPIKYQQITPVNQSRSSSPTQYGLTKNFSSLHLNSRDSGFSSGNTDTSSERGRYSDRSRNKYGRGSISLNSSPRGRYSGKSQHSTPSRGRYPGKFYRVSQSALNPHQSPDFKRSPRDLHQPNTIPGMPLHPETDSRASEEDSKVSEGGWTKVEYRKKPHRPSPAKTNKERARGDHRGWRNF
T4 sequence (Q9NSY1 whole entry): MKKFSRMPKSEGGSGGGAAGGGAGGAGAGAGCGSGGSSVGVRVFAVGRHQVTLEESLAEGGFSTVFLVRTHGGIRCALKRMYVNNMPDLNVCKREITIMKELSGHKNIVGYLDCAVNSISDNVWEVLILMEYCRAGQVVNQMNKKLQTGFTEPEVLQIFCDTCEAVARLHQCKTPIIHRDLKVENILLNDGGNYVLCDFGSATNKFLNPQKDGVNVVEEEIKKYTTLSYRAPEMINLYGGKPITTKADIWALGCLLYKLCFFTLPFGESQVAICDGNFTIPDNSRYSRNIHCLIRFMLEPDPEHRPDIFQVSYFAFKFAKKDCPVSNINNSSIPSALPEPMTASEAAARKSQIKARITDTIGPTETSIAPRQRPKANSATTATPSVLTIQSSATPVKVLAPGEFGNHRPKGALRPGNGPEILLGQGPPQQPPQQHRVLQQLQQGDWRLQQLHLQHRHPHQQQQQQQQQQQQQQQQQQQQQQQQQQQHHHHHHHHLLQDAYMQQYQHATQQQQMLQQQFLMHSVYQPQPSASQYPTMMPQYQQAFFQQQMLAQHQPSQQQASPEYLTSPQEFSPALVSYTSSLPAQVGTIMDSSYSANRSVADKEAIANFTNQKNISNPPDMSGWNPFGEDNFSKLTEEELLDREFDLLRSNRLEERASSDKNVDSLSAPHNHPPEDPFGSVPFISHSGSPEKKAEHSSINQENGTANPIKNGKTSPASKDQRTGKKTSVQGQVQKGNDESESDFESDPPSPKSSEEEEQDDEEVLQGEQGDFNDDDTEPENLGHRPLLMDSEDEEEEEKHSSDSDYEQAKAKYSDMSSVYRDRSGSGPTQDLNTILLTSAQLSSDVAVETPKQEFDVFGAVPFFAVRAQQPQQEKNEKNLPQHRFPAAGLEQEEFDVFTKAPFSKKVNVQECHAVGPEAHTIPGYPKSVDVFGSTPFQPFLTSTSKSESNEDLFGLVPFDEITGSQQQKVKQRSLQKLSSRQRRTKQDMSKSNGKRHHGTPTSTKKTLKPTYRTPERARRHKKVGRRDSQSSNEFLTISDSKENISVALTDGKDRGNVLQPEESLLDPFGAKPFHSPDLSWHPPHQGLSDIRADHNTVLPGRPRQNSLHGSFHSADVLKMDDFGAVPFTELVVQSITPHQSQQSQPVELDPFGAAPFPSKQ
T3 sequence (P15056 whole entry V600E): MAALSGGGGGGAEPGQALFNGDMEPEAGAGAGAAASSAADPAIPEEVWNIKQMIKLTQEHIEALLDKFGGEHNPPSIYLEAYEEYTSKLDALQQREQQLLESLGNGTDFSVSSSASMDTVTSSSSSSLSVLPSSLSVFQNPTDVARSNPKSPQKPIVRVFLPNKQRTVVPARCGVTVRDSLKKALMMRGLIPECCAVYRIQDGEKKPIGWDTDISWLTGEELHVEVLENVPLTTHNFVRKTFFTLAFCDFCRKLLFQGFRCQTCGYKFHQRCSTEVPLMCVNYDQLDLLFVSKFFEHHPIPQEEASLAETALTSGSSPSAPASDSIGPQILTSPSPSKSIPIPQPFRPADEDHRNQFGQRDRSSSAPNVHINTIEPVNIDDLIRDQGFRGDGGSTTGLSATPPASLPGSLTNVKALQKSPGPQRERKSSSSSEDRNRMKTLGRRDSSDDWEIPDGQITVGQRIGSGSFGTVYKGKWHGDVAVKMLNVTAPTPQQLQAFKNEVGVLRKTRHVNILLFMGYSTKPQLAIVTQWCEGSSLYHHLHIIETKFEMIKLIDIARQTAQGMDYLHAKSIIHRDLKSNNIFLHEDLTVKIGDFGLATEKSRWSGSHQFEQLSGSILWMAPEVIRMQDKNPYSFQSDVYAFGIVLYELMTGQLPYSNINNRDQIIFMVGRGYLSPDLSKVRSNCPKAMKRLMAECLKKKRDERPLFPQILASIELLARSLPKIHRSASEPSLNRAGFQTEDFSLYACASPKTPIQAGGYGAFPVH
T5 sequence (Q13131 whole entry): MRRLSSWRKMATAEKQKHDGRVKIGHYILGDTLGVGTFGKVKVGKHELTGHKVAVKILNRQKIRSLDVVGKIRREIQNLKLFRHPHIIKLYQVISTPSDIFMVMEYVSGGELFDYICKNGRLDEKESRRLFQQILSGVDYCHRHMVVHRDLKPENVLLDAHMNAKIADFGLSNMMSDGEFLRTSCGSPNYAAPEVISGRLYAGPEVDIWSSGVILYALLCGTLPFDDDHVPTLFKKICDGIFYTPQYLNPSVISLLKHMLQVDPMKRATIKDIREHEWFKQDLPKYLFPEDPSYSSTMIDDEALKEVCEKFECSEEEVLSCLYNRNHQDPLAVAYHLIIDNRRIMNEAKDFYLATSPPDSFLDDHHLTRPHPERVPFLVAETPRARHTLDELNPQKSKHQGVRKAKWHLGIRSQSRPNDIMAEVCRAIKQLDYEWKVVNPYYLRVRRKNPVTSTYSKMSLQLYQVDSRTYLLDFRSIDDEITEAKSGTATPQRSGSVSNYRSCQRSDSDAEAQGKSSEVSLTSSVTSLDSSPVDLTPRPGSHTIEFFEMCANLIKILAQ
T9 sequence (O14965 whole entry): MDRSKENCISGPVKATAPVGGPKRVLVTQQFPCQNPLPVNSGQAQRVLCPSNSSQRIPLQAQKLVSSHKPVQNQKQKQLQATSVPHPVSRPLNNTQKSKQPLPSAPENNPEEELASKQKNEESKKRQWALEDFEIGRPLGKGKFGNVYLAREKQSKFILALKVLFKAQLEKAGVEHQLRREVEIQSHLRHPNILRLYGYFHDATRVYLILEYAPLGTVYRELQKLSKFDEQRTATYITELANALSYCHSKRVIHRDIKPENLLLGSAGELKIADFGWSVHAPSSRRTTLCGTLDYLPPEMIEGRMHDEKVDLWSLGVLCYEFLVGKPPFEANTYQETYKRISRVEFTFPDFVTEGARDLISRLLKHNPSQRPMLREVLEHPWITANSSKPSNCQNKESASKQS
T8 sequence (P27037 20-513): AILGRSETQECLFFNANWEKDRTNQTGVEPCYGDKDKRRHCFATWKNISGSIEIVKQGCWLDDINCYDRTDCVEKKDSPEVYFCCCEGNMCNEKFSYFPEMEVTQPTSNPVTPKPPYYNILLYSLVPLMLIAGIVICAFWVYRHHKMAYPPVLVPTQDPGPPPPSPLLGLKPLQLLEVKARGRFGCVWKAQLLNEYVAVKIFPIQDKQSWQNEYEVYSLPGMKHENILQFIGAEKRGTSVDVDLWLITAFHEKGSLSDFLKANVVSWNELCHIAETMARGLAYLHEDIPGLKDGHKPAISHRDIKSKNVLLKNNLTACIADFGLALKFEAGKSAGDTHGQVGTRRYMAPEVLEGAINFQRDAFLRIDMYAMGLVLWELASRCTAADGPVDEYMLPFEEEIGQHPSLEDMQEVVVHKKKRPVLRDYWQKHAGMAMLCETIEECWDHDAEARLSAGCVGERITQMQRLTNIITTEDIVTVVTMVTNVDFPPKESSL

As usually defined, the IC50 is the point on the concentration scale where inhibition reaches its midpoint. Read a low IC50 as greater potency in that assay. `COc1cc2ncnc(Nc3cccc(Cl)c3F)c2cc1OCCON1CCN(C)CC1` [Compound 9, N-(3-Chloro-2-fluorophenyl)-7-methoxy-6-(2-((4-methylpiperazin-1-yl)oxy)ethoxy)quinazolin-4-amine]: the remaining binding at 1 µM in data set [1] stood at 30%; in [2], 89%; in data set [3] it was 82%; in data set [10] it was 99%; in [11], 100%; in data set [12], 6.7%. For the same compound, the remaining binding at 1 µM was 8.3% in data set [13], 100% in data set [14] and 75% in [15]. The IC50 in data set [4] was 83 nM; in data set [5] it was 986 ± 138 nM; in data set [6], greater than 10000 nM; in data set [7], 1630 nM; in data set [8] it was 1510 nM; in data set [9], 1100 nM and 1110 nM.
